Measurements published in patent US12357618B2, “Rapamycin (RAPA) self-microemulsifying injection and preparation method and use thereof” (priority 2022, dated 2025).

Assay: Solubility of RAPA in the drug solvent of the stock solution
Assay type: physicochemical
Settings: organic solvent or mixture; drug solvent of two or more solvents (absolute ethanol and latent solvent)
Text: In the RAPA self-microemulsifying injection of the present disclosure, the drug solvent includes absolute ethanol and a latent solvent, and the latent solvent is one or more selected from the group consisting of propylene glycol (PG), polyethylene glycol (PEG) 300, and PEG 400. The drug solvent of the present disclosure is a mixed solvent of two or more solvents in different proportions to dissolve RAPA, which can greatly improve the solubility of RAPA.

Compound `CO[C@H]1C[C@@H]2CC[C@@H](C)[C@@](O)(O2)C(=O)C(=O)N2CCCC[C@H]2C(=O)O[C@H]([C@H](C)C[C@@H]2CC[C@@H](O)[C@H](OC)C2)CC(=O)[C@H](C)/C=C(\C)[C@@H](O)[C@@H](OC)C(=O)[C@H](C)C[C@H](C)/C=C/C=C/C=C/1C` [RAPA, rapamycin] has a solubility of at most 60 mg/mL.
